Experimental data published in patent publication US20130210034A1, “COMPLEX PHOSPHOPROTEIN ACTIVATION PROFILES” (BECKMAN COULTER, INC., priority 2005, published 2013).

How the values were obtained:
Assay type in all cases: cell-based, human
pSTAT5 = assay: Cytokine-stimulated phosphorylation in AML cell populations (BM or PB of AML patients)
Procedure: (§1) To assess the signal transduction response after growth factor simulation, a series comprising two sets of tubes including about 3×10^6 cells/100 μL were incubated at 37° C. for 30 minutes. After this pre-incubation period, tubes with then processes with either a stimulant or inhibitor. […] To examine the effects of protein phosphorylation inhibition, tubes were incubated with an inhibitor cocktail comprising 100 μM/100 μL UO126, 1 μM/100 μL LY294002, and 1 μM/100 μL rapamycin. One unstimulated tube receiving no stimulant or inhibitor was processed to assess basal levels of phospho-protein expression. After stimulation the cells were immediately fixed in 10% formaldehyde solution at 37° C. Pre-labeling with CD13, CD16 and CD64 antibodies was carried out 20 minutes prior to formaldehyde fixation. After fixation, one set of tubes was permeabilized without methanol for pAKT, pERK and pS6 staining and the other for 80% methanol permeabilized for pSTAT3 and pSTAT5 staining. After permeablization, the cells were washed in PBS with 2% BSA and blocked by re-suspended in 75 μL of PBS comprising 25% heat inactivated normal mouse serum, 25% normal rabbit serum. To stain cells with fluorescent conjugated monoclonal antibodies, samples were incubated on ice for 45 minutes in 100 μL of an antibody staining solution including either: 1) CD15-Pacific Orange, CD34-Phycoerythrin-Texas Red, CD117-Phycoerythrin-Cyanin 5.5, CD45-Allophycocyanin-Alexa Fluor 750 (or CD45-Pacific Orange, in which case CD15-Pacific Orange was omitted), pS6-Pacific Blue, pERK-Alexa Fluor 488 and pAKT-Alexa Fluor 647 or 2) CD15-Pacific Orange, CD34-Phycoerythrin-Texas Red, CD117-Phycoerythrin-Cyanin 5.5, CD45-Allophycocyanin-Alexa Fluor 750 or CD45-Pacific Blue, pSTAT3-Alexa Fluor 488 and pSTAT5-Phycoerythrin. The stained cells were washed twice with ice cold PBS containing 2% BSA and centrifuged at 800 g for 6 minutes at 4° C. The supernatant was discarded and cells re-suspended in 250 μL of chilled wash buffer for data acquisition. Stained cells were examined using either GALIOS flow cytometer (Beckman Coulter) or CYAN ADP (Beckman Coulter) equipped with 488 nm, 405 nm and 635 nm lasers to detect the degree of fluorescence. Data were analyzed using FCS Express (De Novo Software, CA) analysis software.
(§2) Specific phosphoprotein expression of pERK, pS6, pAKT, pSTAT5, and pSTAT3 was examined in seven discrete phenotypically defined populations based on 7-color immunophenotyping (FIG. 1). The percent of responding (phosphorprotein positive) cells for each of these populations was determined from individual single parameter histograms based on a fixed integration region set on the inhibitor treated control at about 3% positives.
(§3) Using normal BM signaling profiles of Example 1 as comparison, analysis of 14 AML samples was carried out to identify differences in signaling responses. White blood cells from BM or peripheral blood (PB) samples were obtained from 14 diagnosed AML patients undergoing routine clinical flow cytometry analysis using IRB approved protocols. The AML patients included newly diagnosed AML, AMLs arising in a background of MDS, therapy related AMLs and previously diagnosed AML post therapy. The median age of the patients at diagnosis was 51 years (range: 29-75 years) and represented 5 female and 9 male patients. The median white blood cell was 6.4 million/mL (range: 0.9-106 M/mL) and the BM morphologic blast count was an average of 46% (range: 0%-90%).
(§4) Experiments performed to assess the signal transduction response after growth factor simulation were performed as described for Example 1.

pERK and pS6 = assay: Comparison of SCF-stimulated pERK and pS6 (pERK/pS6 ratios) in healthy donor and AML bone marrow samples
Procedure: In an attempt to dissect the differences between the pERK and pS6 kinetic profiles in healthy donor and AML bone marrow sampless, SCF-stimulated pERK and pS6 data derived from AML1, ALM2, and healthy donors 6 to 9 were analyzed from four different perspectives: MFI, the frequency of positive-stained cells, the ratio of positive to negative cells, and fold stimulation (FIG. 10 and Table 10). The ratio of positives to negative cells was calculated by estimating the AUC of both positive- and negative-stained cells at each t=n, and then expressing this as the ratio of positives to negatives. The fold stimulation was the fold change of the positive/negative ratio at t=n over the baseline ratio at t=0 min. […] However, this was not the case in the AML samples.

pAKT = assay: Cytokine-stimulated phosphorylation in AML cell populations (BM or PB of AML patients)
Procedure: as §1, §2, §3, §4

With “Granulocyte-Macrophage Colony-Stimulating Factor [GM-CSF]” the “pSTAT5, AML Sample” value (pSTAT5; patient AML2 (Example 3)) was 14.6, the “pSTAT5, AML Sample” value (pSTAT5; patient AML5 (Example 3)) was 2.0 and the “pSTAT5, AML Sample” value (pSTAT5; patient AML6 (Example 3)) was 2.5. The “pSTAT5, AML Sample” value (pSTAT5; patient AML8 (Example 3)) was 10.6, the “pSTAT5, AML Sample” value (pSTAT5; patient AML13 (Example 3)) was 14.6 and the “pSTAT5, AML Sample” value (pSTAT5; patient AML14 (Example 3)) was 4.7.

In the case of Stem Cell Factor [SCF], the “Fold Stimulation, pERK/pS6” value (pERK and pS6; AML1) is reported as 1.4, the “Frequency, pERK/pS6” value (pERK and pS6; AML1) is reported as 0.92 and the “MFI, pERK/pS6” value (pERK and pS6; AML1) is reported as 0.48. For the same molecule, the “Positives/Negatives, pERK/pS6” value (pERK and pS6; AML1) was 0.29, the “Fold Stimulation, pERK/pS6” value (pERK and pS6; AML2) was 2.1 and the “Frequency, pERK/pS6” value (pERK and pS6; AML2) was 0.93. For the same molecule, the “MFI, pERK/pS6” value (pERK and pS6; AML2) was 0.54, the “Positives/Negatives, pERK/pS6” value (pERK and pS6; AML2) was 0.32 and the “[(pERK)max:(pS6)max]MFI ratio” value (pERK and pS6; AML samples) was “about 0.5”. The “[(pERK)max:(pS6)max]POS/NEG ratio” value (pERK and pS6; AML samples) was “about 0.3”, the “Fold Stimulation, pERK/pS6” value (pERK and pS6; healthy donors 6 to 9) was 5.3 and the “Frequency, pERK/pS6” value (pERK and pS6; healthy donors 6 to 9) was 3.1. The “MFI, pERK/pS6” value (pERK and pS6; healthy donors 6 to 9) was 3.6, the “Positives/Negatives, pERK/pS6” value (pERK and pS6; healthy donors 6 to 9) was 11 and the “pAKT, AML Sample” value (pAKT; patient AML5 (Example 3)) was “typical upregulation of pAKT”. For the same molecule, the “pAKT activation kinetics compared to normal” value (pAKT; patient AML7 (Example 3), abnormal blasts) was “significant delayed activation, and prolonged expression” and the “pAKT, AML Sample” value (pAKT; patient AML11 (Example 3)) was 3.2.

B1: FMS-Like Tyrosine Kinase 3 (FLT-3) ligand (protein, UniProt P49771 27-235, looked up)
Fms-related tyrosine kinase 3 …: TQDCSFQHSPISSDFAVKIRELSDYLLQDYPVTVASNLQDEELCGGLWRLVLAQRWMERLKTVAGSKMQGLLERVNTEIHFVTKCAFQPPPSCLRFVQTNISRLLQETSEQLVALKPWITRQNFSRCLELQCQPDSSTLPPPWSPRPLEATAPTAPQPPLLLLLLLPVGLLLLAAAWCLHWQRTRRRTPRPGEQVPPVPSPQDLLLVEH
With B1 the “pAKT, AML Sample” value (pAKT; patient AML5 (Example 3)) was 8.1.
